Values quoted from earlier work, collected in patent US20070287647A1, “Nail Polish Remover” (priority 2006, published 2007).

Conditions: in vapor

## CC#N [acetonitrile]
  inhalation toxicity level: about 60 ppm
